Assay results from US20260028354A1, “TETRAHYDRONAPHTHALENE DERIVATIVES AS ESTROGEN RECEPTOR DEGRADERS” (REGENT OF THE UNIVERSITY OF MICHIGAN, priority 2022, published 2026).
Where two headings read alike, the source gives them in different places.

Experiments:
ER = ER (Homo sapiens (Human), UniProt P03372); assay: In-cell western blot analysis of ER for "B" compounds; assay type: cell-based; settings: 16 hours, read-out: ICW DC50
Method: R^T 2h, gentle shaking. Negative control: cells plus secondary antibodies (no primary antibodies); e, wash x 4 with PBS+0.05-0.1% Tween 20, gentel shaking; f, anti-rabbit-680 and anti-mouse-800 (both 1:1000 in LiCor block+0.05% Tween20, R^T 1h, gentle shaking, no light. LI-COR: 0.2% to reduce background; g, wash×4 with PBS+0.05% Tween 20, gental shaking; h, add 100 μL or 25 μL of PBS to each well and read on CLX plate reader. The relative ER percentage in treated cells were obtained by comparing the values of treated wells to those in untreated and DMSO-treated wells as 100%.

[1] = Cell growth assay (WST-8) for "B" compounds; assay type: cell-based; settings: T47D, read-out: Cell growth Inhibition in T47D cell line IC50
How it was run: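 Cells seeded at 1500/well overnight, then exposed to compounds for 4 days. 10% WST-8 added for 2.5 h at 37 °C and absorbance read at 450 nm. Growth given as absorbance relative to vehicle control, from three repeats.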

Chain of ER (P03372 whole entry): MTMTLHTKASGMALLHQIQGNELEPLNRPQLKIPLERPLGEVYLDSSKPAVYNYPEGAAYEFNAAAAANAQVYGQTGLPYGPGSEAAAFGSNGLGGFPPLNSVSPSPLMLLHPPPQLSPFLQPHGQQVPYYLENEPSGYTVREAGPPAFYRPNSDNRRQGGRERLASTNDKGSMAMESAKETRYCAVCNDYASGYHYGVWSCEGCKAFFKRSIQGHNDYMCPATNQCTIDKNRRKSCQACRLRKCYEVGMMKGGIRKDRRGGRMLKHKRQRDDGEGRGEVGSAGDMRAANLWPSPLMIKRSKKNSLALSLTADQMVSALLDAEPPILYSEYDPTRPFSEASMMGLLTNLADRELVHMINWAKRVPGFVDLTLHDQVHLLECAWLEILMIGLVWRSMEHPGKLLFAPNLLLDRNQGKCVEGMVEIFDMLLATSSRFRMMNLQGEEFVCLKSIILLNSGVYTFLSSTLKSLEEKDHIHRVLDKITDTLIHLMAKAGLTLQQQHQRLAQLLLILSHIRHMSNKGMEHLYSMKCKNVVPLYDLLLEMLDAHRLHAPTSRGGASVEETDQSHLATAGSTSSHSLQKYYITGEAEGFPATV

Question: With O=C1CCC(N2Cc3cc4c(cc3C2=O)OC[C@@H]2CN(CC(=O)N3CCC5(CC3)CCN(c3ncc([C@@H]6c7ccc(O)cc7CC[C@@H]6c6ccccc6)cn3)CC5)CCN42)C(=O)N1 (mixture of isomers) [Compound B149, 3-((S)-3-(2-(9-(5-(cis-6-hydroxy-2-phenyl-1,2,3,4-tetrahydronaphthalen-1-yl)pyrimidin-2-yl)-3,9-diazaspiro[5.5]undecan-3-yl)-2-oxoethyl)-8-oxo-1,2,3,4,4a,5,8,10-octahydro-9H-pyrazino[1′,2′: 4,5][1,4]oxazino[2,3-f]isoindol-9-yl)piperidine-2,6-dione] as the molecule, how does the DC50 (ER) read?
Answer: 10 to 100 nM

Question: And the IC50 [1]?
Answer: < 1 nM

Question: For CN(C(=O)c1ccc2c(c1)OC[C@H]1CN(C(=O)CN3CCC4(CC3)CN(c3ccc(C5c6ccc(O)cc6CCC5c5ccccc5)cc3)C4)CCN21)C1CCC(=O)NC1=O (stereo in doubt) [Compound B223, (4aR)-N-(2,6-dioxopiperidin-3-yl)-3-(2-(2-(4-((1S,2R)-6-hydroxy-2-phenyl-1,2,3,4-tetrahydronaphthalen-1-yl)phenyl)-2,7-diazaspiro[3.5]nonan-7-yl)acetyl)-N-methyl-1,2,3,4,4a,5-hexahydrobenzo[b]pyrazino[1,2-d][1,4]oxazine-8-carboxamide], which DC50 (ER) is on record?
Answer: 10 to 100 nM

Question: What about the IC50 ([1]; T47D cell line) of the same molecule?
Answer: > 10 nM

Question: Which DC50 (ER) does the source give for O=C1CCC(N2Cc3cc4c(cc3C2=O)OC[C@@H]2CN(C(=O)[C@H]3CC[C@@H](CN5CC(Nc6ccc([C@@H]7c8ccc(O)cc8CC[C@@H]7c7ccccc7)cc6)C5)CC3)CCN42)C(=O)N1 (stereo partly drawn) [Compound B140, 3-((S)-3-((1R,4S)-4-((3-((4-((1R,2S)-6-hydroxy-2-phenyl-1,2,3,4-tetrahydronaphthalen-1-yl)phenyl)amino)azetidin-1-yl)methyl)cyclohexane-1-carbonyl)-8-oxo-1,2,3,4,4a,5,8,10-octahydro-9H-pyrazino[1′,2′:4,5][1,4]oxazino[2,3-f]isoindol-9-yl)piperidine-2,6-dione] here?
Answer: < 10 nM

Question: And the IC50 ([1]; T47D cell line)?
Answer: < 1 nM

Question: For O=C1CCC(N2Cc3cc4c(cc3C2=O)OC[C@@H]2CN(C(=O)[C@H]3CC[C@H](CN5CCN(c6ccc([C@@H]7c8ccc(O)cc8CC[C@@H]7c7ccccc7)cc6)CC5)CC3)CCN42)C(=O)N1 (stereo partly drawn) [Compound B141, 3-((S)-3-((1R,4S)-4-((4-(4-((1R,2S)-6-hydroxy-2-phenyl-1,2,3,4-tetrahydronaphthalen-1-yl)phenyl)piperazin-1-yl)methyl)cyclohexane-1-carbonyl)-8-oxo-1,2,3,4,4a,5,8,10-octahydro-9H-pyrazino[1′,2′:4,5][1,4]oxazino[2,3-f]isoindol-9-yl)piperidine-2,6-dione], which DC50 (ER) is on record?
Answer: < 10 nM

Question: What about the IC50 ([1]; T47D cell line) of the same molecule?
Answer: < 1 nM

Question: Which DC50 (ER) does the source give for O=C1CCC(Nc2ccc(N3CCN(CC4CCN(c5ccc([C@@H]6c7ccc(O)cc7CC[C@@H]6c6ccccc6)cc5)CC4)CC3)c(F)c2)C(=O)N1 (stereo partly drawn) [Compound B380, 3-((3-fluoro-4-(4-((1-(4-((1R,2S)-6-hydroxy-2-phenyl-1,2,3,4-tetrahydronaphthalen-1-yl)phenyl)piperidin-4-yl)methyl)piperazin-1-yl)phenyl)amino)piperidine-2,6-dione] here?
Answer: > 100 nM

Question: Which DC50 (ER) does the source give for O=C1CCC(Nc2ccc(N3CCN(CC4CC5(CCN(c6ccc([C@@H]7c8ccc(O)cc8CC[C@@H]7c7ccccc7)cc6)CC5)C4)CC3)c(F)c2)C(=O)N1 (stereo partly drawn) [Compound B381, 3-((3-fluoro-4-(4-((7-(4-((1R,2S)-6-hydroxy-2-phenyl-1,2,3,4-tetrahydronaphthalen-1-yl)phenyl)-7-azaspiro[3.5]nonan-2-yl)methyl)piperazin-1-yl)phenyl)amino)piperidine-2,6-dione] here?
Answer: > 100 nM

Question: For O=C1CCC(Nc2ccc(N3CCN(CC4CCC5(CCN(c6ccc([C@@H]7c8ccc(O)cc8CC[C@@H]7c7ccccc7)cc6)CC5)OC4)CC3)c(F)c2)C(=O)N1 (stereo partly drawn) [Compound B382, 3-((3-fluoro-4-(4-((9-(4-((1R,2S)-6-hydroxy-2-phenyl-1,2,3,4-tetrahydronaphthalen-1-yl)phenyl)-1-oxa-9-azaspiro[5.5]undecan-3-yl)methyl)piperazin-1-yl)phenyl)amino)piperidine-2,6-dione], which DC50 (ER) is on record?
Answer: > 100 nM
